Assay results from patent US12358960B2, “Selective targeting of ubiquitin- and ubiquitin-like E1-activating enzymes by structurally-stabilized peptides” (Dana-Farber Cancer Institute, Inc., priority 2019, dated 2025).
Bridge positions count the residues as written; N and C are the ends. Square brackets hold non-standard residues; d marks the D form. Peptide text beside a SMILES is read from it. R8 = C=CCCCCCC[C@@](C)(N)C(=O)O; S5 = C=CCCC[C@](C)(N)C(=O)O; Nle = CCCC[C@H](N)C(=O)O

Experiments:
[1] = target: T1, deubiquitinase enzyme USP7 (Homo sapiens, UniProt Q93009); test: Deubiquitination of p53 by USP7 in the reconstitution assay; format: biochemical; settings: peptide 30 μM
T1 construct: purchased BostonBiochem E-519
Description: In Vitro Ubiquitin Pathway Reconstitution Assay: Reactions containing recombinant His-p53 (0.1 μM), in the presence or absence of peptide (30 μM), UBA1 (0.1 μM), UBE2D (1 μM), HDM2 (1 μM), ubiquitin (1 μM) and ATP (10 mM) (all Boston Biochem K-200B), preactivated Ub-UBEA2 (3 μM) (Boston Biochem E2-802), and USP7 (1 μM) (BostonBiochem E-519), as indicated, were mixed and incubated for 2 h at 37° C. in a final volume of […] followed by denaturation by boiling in SDS-containing loading dye for 10 min at 90° C. Samples were resolved by […] gel electrophoresis and transferred to nitrocellulose membrane. Membranes were blocked with 3% milk for 1 h, incubated overnight in PBS containing 3% BSA and mouse p53 antibody (Boston Biochem K-200B) at a 1:1000 dilution, washed in PBS containing 0.1% Tween-20, and then incubated in PBS containing 3% BSA and anti-mouse secondary antibody (BioRad AAC10P) at a 1:5000 dilution for 1 hour at room temperature. Membranes were again washed in PBS containing 0.1% Tween-20 and imaged using Amersham ECL Prime (GE Life Sciences) on an Amersham Imager 680 (GE Life Sciences).

[2] = system: HeLa S100 lysate fraction, polyubiquitin chains; test: Cellular lysate enzyme inhibition (ubiquitination) assay; format: biochemical; settings: excess ubiquitin, ATP regeneration solution, vs vehicle
Description: Cellular Lysate Enzyme Inhibition Assays: Cellular lysate assays were performed with 1 mg/mL final concentration HeLa S100 lysate fraction and the indicated concentration of peptide or DMSO vehicle control in an assay buffer containing 1×ATP regeneration solution, 20 mM HEPES, 50 mM NaCl, 5 mM MgCl2, 2 mM DTT, 100 nM ubiquitin aldehyde, and a protease-phosphatase inhibitor cocktail at pH 7.4. Reactions were initiated by addition of ubiquitin to a final concentration of 100 μM and allowed to proceed for 30 minutes at room temperature, followed by quenching with non-reducing LDS loading buffer. Proteins were separated by SDS-PAGE gel electrophoresis and detected by western blot against polyubiquitin (Cell Signaling Technology CST3936).

proteinase K = proteinase K (Parengyodontium album, UniProt P06873); test: in vitro; settings: proteinase K (isolated protease) in Tris HCl buffer, pH 7.4
Sequence of proteinase K (P06873 106-384): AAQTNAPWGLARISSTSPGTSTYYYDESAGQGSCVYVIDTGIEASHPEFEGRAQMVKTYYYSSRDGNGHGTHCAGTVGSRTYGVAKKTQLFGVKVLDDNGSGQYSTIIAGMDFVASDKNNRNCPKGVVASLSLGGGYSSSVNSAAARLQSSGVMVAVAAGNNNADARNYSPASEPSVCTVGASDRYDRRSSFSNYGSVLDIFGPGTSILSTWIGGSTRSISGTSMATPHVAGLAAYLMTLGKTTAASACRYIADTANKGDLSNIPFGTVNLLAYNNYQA
Description: Peptide Proteolysis Assay: In vitro proteolytic degradation was measured by LC/MS (Agilent 1200) using the following parameters: 20 μl injection, 0.6 mL flow rate, 20-min run time consisting of a gradient of water (0.1% formic acid) to 20%-80% acetonitrile (0.75% formic acid) over 15-min, 4-min wash to revert to starting gradient conditions, and 0.5-min post-time. The MSD set to scan mode with one channel at (M+2H)/2, ±1 mass units, one channel at (M+3H)/3, ±1 mass units, and the other at (M+4H)/4, ±1 mass units. Integration of each MSD signal yielded areas under the curve of >108 counts. Reaction samples were composed of 5 μl peptide in DMSO (1 mM stock) and 195 μl buffer consisting of 50 mM Tris HCl, pH 7.4. Upon injection of the zero time sample, 6 μl of 20 ng/μL proteinase K (New England Biolabs) was added, and the amount of intact peptide quantitated by serial injection over time. A plot of MSD area versus time yielded an exponential decay curve, and half-lives were determined by nonlinear regression analysis using Prism software (GraphPad).

T1 sequence (Q93009 whole entry): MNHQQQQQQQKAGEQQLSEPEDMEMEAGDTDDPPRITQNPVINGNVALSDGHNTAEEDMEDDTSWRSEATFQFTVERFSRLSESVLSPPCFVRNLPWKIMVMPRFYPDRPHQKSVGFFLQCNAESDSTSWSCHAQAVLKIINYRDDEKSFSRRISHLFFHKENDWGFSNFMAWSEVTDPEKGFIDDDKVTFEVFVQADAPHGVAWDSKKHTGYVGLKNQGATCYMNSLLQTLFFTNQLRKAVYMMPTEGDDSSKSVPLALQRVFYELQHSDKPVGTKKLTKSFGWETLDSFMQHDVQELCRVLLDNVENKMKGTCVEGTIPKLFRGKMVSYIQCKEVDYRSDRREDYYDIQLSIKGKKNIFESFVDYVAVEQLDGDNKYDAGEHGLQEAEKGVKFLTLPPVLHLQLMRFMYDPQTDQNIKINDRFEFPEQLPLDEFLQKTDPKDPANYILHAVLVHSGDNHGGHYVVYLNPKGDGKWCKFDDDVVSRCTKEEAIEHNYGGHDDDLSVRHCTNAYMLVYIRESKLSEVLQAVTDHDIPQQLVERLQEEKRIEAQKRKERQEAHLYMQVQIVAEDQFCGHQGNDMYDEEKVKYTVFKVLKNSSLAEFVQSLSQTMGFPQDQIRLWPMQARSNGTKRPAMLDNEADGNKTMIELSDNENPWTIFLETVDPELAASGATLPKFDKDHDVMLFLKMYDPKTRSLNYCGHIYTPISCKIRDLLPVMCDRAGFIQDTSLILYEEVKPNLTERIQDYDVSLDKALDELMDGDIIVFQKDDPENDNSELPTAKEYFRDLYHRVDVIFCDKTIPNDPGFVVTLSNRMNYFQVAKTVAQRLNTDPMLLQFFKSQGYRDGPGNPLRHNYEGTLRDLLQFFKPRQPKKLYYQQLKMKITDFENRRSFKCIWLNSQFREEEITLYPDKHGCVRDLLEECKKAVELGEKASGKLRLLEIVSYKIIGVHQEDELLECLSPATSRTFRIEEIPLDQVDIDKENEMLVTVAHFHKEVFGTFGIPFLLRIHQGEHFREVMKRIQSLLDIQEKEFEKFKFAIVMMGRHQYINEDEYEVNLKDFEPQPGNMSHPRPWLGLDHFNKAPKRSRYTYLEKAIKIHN

Q: Which “activity of deubiquitinase USP7 against p53” value [1] does the source give for `CCCC[C@H](NC(C)=O)C(=O)N[C@@H](CO)C(=O)N[C@H](C(=O)N1CCC[C@H]1C(=O)N[C@]1(C)CCCCCCC=CCCC[C@@](C)(C(=O)N[C@@H](Cc2ccccc2)C(=O)N[C@@H](CCCCN)C(=O)N[C@@H](CCCNC(=N)N)C(=O)N[C@@H](CC(C)C)C(=O)N[C@@H](CCC(N)=O)C(N)=O)NC(=O)[C@H](CCCNC(=N)N)NC(=O)[C@H](CCCC)NC(=O)[C@H](CC(C)C)NC(=O)[C@H](CCCNC(=N)N)NC(=O)[C@H](CCCNC(=N)N)NC(=O)[C@H](CCCNC(=N)N)NC1=O)[C@@H](C)O` [SAH-UBE2A-11, BSTPX1RRRLBRX2FKRLQ] (Ac-[Nle]STP[R8]RRRL[Nle]R[S5]FKRLQ-NH2; staple 5-12) here?
A: no effect on the activity of the deubiquitinase enzyme USP7 against p53

Q: And the “activity of deubiquitinase USP7 against p53” value ([1]; listed as SAH-UBE2A)?
A: regardless of SAH-UBE2A presence

Q: What about the “formation of polyubiquitin chains in HeLa cell cytoplasmic fraction” value [2] of the same compound?
A: dose-dependently inhibited formation of polyubiquitin chains

Q: And the half-life at 25 µM (proteinase K)?
A: > 6 h
